Active and inactive are the calls of the source. No cut-off for these calls is given here.
Legend:
Relaxin receptor 1 = biological target: T1, Relaxin receptor 1 (Homo sapiens, UniProt Q9HBX9); experiment: Agonist activity at RXFP1 receptor (unknown origin) expressed in HEK293 cells assessed as stimulation of cAMP production incubated for 30 mins by TR-FRET based HTRF assay; assay type: functional, cell-based
T1 sequence (Q9HBX9 whole entry): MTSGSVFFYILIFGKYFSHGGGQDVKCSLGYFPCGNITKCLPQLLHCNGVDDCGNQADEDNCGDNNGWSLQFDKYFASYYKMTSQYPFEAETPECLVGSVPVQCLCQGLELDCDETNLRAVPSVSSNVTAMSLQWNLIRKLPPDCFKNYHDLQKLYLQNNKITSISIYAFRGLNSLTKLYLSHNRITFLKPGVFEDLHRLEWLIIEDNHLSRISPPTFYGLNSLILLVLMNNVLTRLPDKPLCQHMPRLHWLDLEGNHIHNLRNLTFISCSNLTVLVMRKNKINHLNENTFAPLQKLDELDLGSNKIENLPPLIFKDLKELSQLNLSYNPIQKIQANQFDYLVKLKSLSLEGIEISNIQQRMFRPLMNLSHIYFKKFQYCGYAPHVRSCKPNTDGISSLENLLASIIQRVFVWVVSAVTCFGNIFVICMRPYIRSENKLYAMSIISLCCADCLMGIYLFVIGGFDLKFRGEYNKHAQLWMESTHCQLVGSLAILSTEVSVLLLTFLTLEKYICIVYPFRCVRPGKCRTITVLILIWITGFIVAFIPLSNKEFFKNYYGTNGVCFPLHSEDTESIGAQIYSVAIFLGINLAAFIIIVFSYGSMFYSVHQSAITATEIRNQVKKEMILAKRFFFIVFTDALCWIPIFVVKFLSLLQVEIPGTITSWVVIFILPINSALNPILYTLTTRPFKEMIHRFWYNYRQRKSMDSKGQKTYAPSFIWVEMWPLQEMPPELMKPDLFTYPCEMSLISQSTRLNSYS

[1] = biological target: T2, Relaxin receptor 1 (Homo sapiens) (UniProt Q9HBX9); experiment: Agonist activity at RXFP1 receptor (unknown origin) expressed in HEK293 cells assessed as stimulation of cAMP production incubated for 30 mins by TR-FRET based HTRF assay relative to forskolin; assay type: functional, cell-based
T2 sequence (whole entry): T1 sequence (Q9HBX9 whole entry)

SMILES | AC50 (Relaxin receptor 1; read-out: AC50) [µM] | %max [1] | AC50 (Relaxin receptor 1; hek293)
O=C(Nc1cccc(C(F)(F)F)c1)c1ccccc1NC(=O)c1ccccc1[N+](=O)[O-] | 188 | 30% | –
COc1ccccc1C(=O)Nc1ccccc1C(=O)Nc1cccc(N2CCCCC2)c1 | 5.29 | 77% | –
O=C(Nc1cccc(Cl)c1)c1ccccc1NC(=O)C1CCCCC1 | 3.34 | 89% | –
O=C(Nc1cccc(C(F)(F)F)c1)c1ccccc1OCCN1CCNCC1 | – | inactive | Not Active
COc1ccccc1C(=O)Nc1ccc(C(=O)Nc2cccc(C(F)(F)F)c2)cc1 | – | inactive | Not Active
CC(C)Oc1ccccc1C(=O)Nc1ccccc1C(=O)Nc1cccc(C(F)(F)F)c1 | 0.471 | 99% | –
Cc1ccccc1C(=O)Nc1ccccc1C(=O)Nc1cccc(C(F)(F)F)c1 | 4.2 | 90% | –
O=C(Nc1ccccc1C(=O)Nc1cccc(C(F)(F)F)c1)c1ccc(Cl)cc1 | 2.65 | 95% | –
O=C(Nc1cccc(C(F)(F)F)c1)c1ccccc1OCCN1CCOCC1 | – | inactive | Not Active
O=C(Nc1ccccc1C(=O)Nc1cccc(C(F)(F)F)c1)c1cccc(Br)c1 | 1.67 | 97% | –
O=C(Nc1ccccc1F)c1ccccc1NC(=O)C1CCCCC1 | – | inactive | Not Active
CCOc1ccccc1C(=O)Nc1ccccc1CNc1cccc(S(=O)(=O)C(F)(F)F)c1 | 2.65 | 77% | –
COc1ccc(NC(=O)c2ccccc2NC(=O)C2CCCCC2)cc1 | – | inactive | Not Active
O=C(Nc1ccccc1C(=O)Nc1cccc(C(F)(F)F)c1)c1ccccc1Br | 7.47 | 78% | –
O=C(NCc1ccccc1C(F)(F)F)c1ccccc1NC(=O)C1CCCCC1 | – | inactive | Not Active
CCOc1ccccc1C(=O)Nc1ccccc1C(=O)Nc1cccc(-c2nnn[nH]2)c1 | – | inactive | Not Active
O=C(Cc1ccccc1)Nc1ccccc1C(=O)Nc1cccc(C(F)(F)F)c1 | 8.38 | 86% | –
CS(=O)(=O)c1cccc(C(=O)Nc2ccccc2C(=O)Nc2cccc(C(F)(F)F)c2)c1 | 9.4 | 77% | –
COCCOc1ccccc1C(=O)Nc1cccc(C(F)(F)F)c1 | – | inactive | Not Active
CCOc1ccccc1-c1nc2c(C(=O)Nc3cccc(S(=O)(=O)C(F)(F)F)c3)cccc2[nH]1 | – | inactive | Not Active

SMILES | AC50 (Relaxin receptor 1; read-out: AC50) [µM] | %max [1] | AC50 (Relaxin receptor 1; hek293)
COc1ccccc1Nc1ccccc1C(=O)Nc1cccc(C(F)(F)F)c1 | 4.71 | 77% | –
O=C(Nc1ccccc1[N+](=O)[O-])c1ccccc1NC(=O)C1CCCCC1 | – | inactive | Not Active
CCOc1ccccc1S(=O)(=O)Nc1ccccc1C(=O)Nc1cccc(S(=O)(=O)C(F)(F)F)c1 | – | inactive | –
O=C(Nc1cccc(C(F)(F)F)c1)c1ccccc1NC(=O)c1ccccc1C(F)(F)F | 7.47 | 70% | –
CCOc1ccccc1C(=O)Nc1ccccc1C(=O)Nc1cccc(C(=N)N)c1 | – | inactive | Not Active
O=C(Nc1ccccc1C(=O)Nc1cccc(C(F)(F)F)c1)c1ccccc1Cl | 3.74 | 92% | –
CCOc1ccccc1C(=O)Nc1ccccc1C(=O)Nc1ccncc1 | 74.7 | 64% | –
O=C(Nc1ccccc1C(=O)Nc1cccc(C(F)(F)F)c1)c1ccc(C(F)(F)F)cc1 | 5.93 | 93% | –
O=C(NCc1cccs1)c1ccccc1NC(=O)C1CCCCC1 | 118 | 40% | –
CC(C)(C)c1cccc(NC(=O)c2ccccc2NC(=O)C2CCCCC2)c1 | 2.65 | 70% | –
O=C(Nc1ccccc1C(=O)Nc1cccc(C(F)(F)F)c1)c1ccccc1 | 1.32 | 64% | –
COc1cccc(NC(=O)c2ccccc2NC(=O)C2CCCCC2)c1 | 37.4 | 74% | –
Cc1cccc(C(=O)Nc2ccccc2C(=O)Nc2cccc(C(F)(F)F)c2)c1 | 3.74 | 92% | –
O=C(Nc1ccccc1C(=O)Nc1cccc(C(F)(F)F)c1)c1cccc(C(F)(F)F)c1 | 2.97 | 95% | –
O=C(Nc1cccc(-c2ccccc2)c1)c1ccccc1NC(=O)C1CCCCC1 | – | inactive | –
COc1ccccc1C(=O)Nc1ccccc1C(=O)Nc1cccc(C(F)(F)F)c1 | 0.334 | 99% | –
COc1ccccc1C(=O)Nc1ccccc1C(=O)Nc1cccc(SC)c1 | 1.33 | 94% | –
COc1cccc(OC)c1C(=O)Nc1ccccc1C(=O)Nc1cccc(C(F)(F)F)c1 | 7.47 | 42% | –
CCOc1ccccc1-c1nc2ccccc2c(=O)n1-c1cccc(-c2nnn[nH]2)c1 | 149 | 36% | –
O=C(Nc1cccc(C(F)(F)F)c1)c1ccccc1NCc1ccccc1 | 47.1 | 69% | –

SMILES | AC50 (Relaxin receptor 1; read-out: AC50) [µM] | %max [1] | AC50 (Relaxin receptor 1; hek293)
CC(C)c1cccc(NC(=O)c2ccccc2NC(=O)C2CCCCC2)c1 | 5.29 | 66% | –
CCOc1ccccc1C(=O)Nc1ccccc1C(=O)Nc1cncc(I)c1 | – | 72% | –
COc1cccc(C(=O)Nc2ccccc2C(=O)Nc2cccc(C(F)(F)F)c2)c1 | 1.88 | 94% | –
CCOc1ccccc1C(=O)Nc1cccnc1C(=O)Nc1cccc(S(=O)(=O)C(F)(F)F)c1 | 4.71 | 73% | –
O=C(Nc1cccc(C(F)(F)F)c1)c1ccccc1NCc1cccc(C(F)(F)F)c1 | 47.1 | 71% | –
COc1ccccc1C(=O)N(C)c1ccccc1C(=O)Nc1cccc(C(F)(F)F)c1 | – | inactive | –
CCSc1ccccc1C(=O)Nc1ccccc1C(=O)Nc1cccc(S(=O)(=O)C(F)(F)F)c1 | 0.529 | 95% | –
O=C(Nc1ccccc1C(=O)Nc1cccc(C(F)(F)F)c1)c1ccc([N+](=O)[O-])cc1 | 1.49 | 96% | –
O=C(Nc1cccc(C(F)(F)F)c1)c1ccc(NC(=O)C2CCCCC2)cc1 | – | inactive | Not Active
Cc1ccc(C(=O)Nc2ccccc2C(=O)Nc2cccc(C(F)(F)F)c2)cc1 | 4.71 | 85% | –
COc1ccccc1C(=O)Nc1ccccc1C(=O)Nc1cccc(-c2cccs2)c1 | – | inactive | Not Active
O=C(Nc1cccc(C(F)(F)F)c1)c1ccccc1-c1ccccc1 | – | inactive | Not Active
O=C(Nc1ccccc1C(=O)Nc1cccc(C(F)(F)F)c1)c1ccc(Br)cc1 | 4.2 | 93% | –
Cc1ccccc1NC(=O)c1ccccc1NC(=O)C1CCCCC1 | – | inactive | –
O=C(Nc1ccc(C(F)(F)F)cc1)c1ccccc1NC(=O)C1CCCCC1 | 94 | 46% | –
O=C(Nc1cccc(-c2cccc(C(F)(F)F)c2)c1)c1ccccc1NC(=O)C1CCCCC1 | – | inactive | –
CCOc1ccccc1-c1nc2ccccc2c2nc3ccc(C(F)(F)F)cc3n12 | 188 | – | –
C/C=C\c1cccc(NC(=O)c2ccccc2NC(=O)c2ccccc2OCC)c1 | – | 91% | –
O=C(NCc1cccc(C(F)(F)F)c1)c1ccccc1NC(=O)C1CCCCC1 | – | inactive | –
COc1ccccc1C(=O)Nc1cccc(C(=O)Nc2cccc(C(F)(F)F)c2)c1 | – | inactive | –

— ChEMBL document CHEMBL3714716, “Modulators of the relaxin receptor 1” (2015)
